Source: ChEMBL document CHEMBL1201862, “PubChem BioAssay data set” (2004)
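Five concentrations, 48 hours, 96-well plates. GI50: concentration for 50% inhibition of growth.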 Activity calls are given as the source filed them. Rule as the data show it: active = GI50 up to about 1.1 µM and inactive = higher.

Tests used:
Test in all cases: inhibition of tumour cell growth, NCI panel, 48 h
[1] = test system: SK-OV-3
[2] = test system: NCI-H460
[3] = test system: SR
[4] = test system: UO-31
[5] = test system: A549
[6] = test system: CCRF-CEM
[7] = test system: SF-539
[8] = test system: HOP-92
[9] = test system: SK-MEL-5
[10] = test system: 786-0
[11] = test system: T47D
[12] = test system: UACC-257
[13] = test system: IGROV-1
[14] = test system: KM12
[15] = test system: M14
[16] = test system: ACHN
[17] = test system: HCC 2998
[18] = test system: NCI-H226
[19] = test system: SK-MEL-28
[20] = test system: RXF 393

Measured: GI50

O=C1c2ccc3c4ccc5c6c(ccc(c7ccc(c2c37)C(=O)N1CCN1CCCCC1)c64)C(=O)N(CCN1CCCCC1)C5=O
inactive: [1] > 100 µM | [2] > 100 µM | [3] > 100 µM | [4] > 100 µM | [5] > 100 µM | [6] > 100 µM | [7] > 100 µM | [8] > 100 µM | [9] > 100 µM | [10] > 100 µM | [11] > 100 µM | [12] > 100 µM | [13] > 100 µM | [14] > 100 µM | [15] > 100 µM | [16] > 100 µM | [17] > 100 µM | [18] > 100 µM | [19] > 100 µM | [20] > 100 µM

Oc1ccc(/N=N/c2ccc(Cl)cc2)cc1
inactive: [1] 21.9 µM | [2] 16.9 µM | [3] 19.5 µM | [4] 13.7 µM | [5] 14.2 µM | [6] 4.63 µM | [7] 18.4 µM | [8] 12.7 µM | [9] 11.7 µM | [10] 17.3 µM | [11] 15 µM | [12] 15.8 µM | [13] 12.9 µM | [14] 13 µM | [15] 10.7 µM | [16] 12.9 µM | [17] 15.7 µM | [18] 17.7 µM | [19] 23 µM | [20] 15.4 µM

COC(=O)c1sc2nc(Nc3ccccc3)/c(=N\c3ccccc3)sc2c1C
inactive: [1] 32.8 µM | [2] 45.4 µM | [3] 47.6 µM | [4] > 100 µM | [5] 65.8 µM | [6] > 100 µM | [7] 51.9 µM | [8] 31.3 µM | [9] 88.5 µM | [10] 34.8 µM | [11] > 100 µM | [12] > 100 µM | [13] 45.4 µM | [14] > 100 µM | [16] 32.7 µM | [17] > 100 µM | [18] > 100 µM | [19] > 100 µM | [20] 24.3 µM

COc1ccc(/N=C(/C[S+]([O-])c2ccc(C)cc2)C(F)(F)F)cc1 (stereo unspecified)
inactive: [1] > 100 µM | [2] > 100 µM | [3] > 100 µM | [4] 9.57 µM | [5] 78 µM | [6] 61.9 µM | [7] > 100 µM | [8] > 100 µM | [9] > 100 µM | [10] > 100 µM | [11] > 100 µM | [12] > 100 µM | [13] > 100 µM | [14] 27.9 µM | [15] > 100 µM | [16] 50.6 µM | [17] 41 µM | [18] > 100 µM | [19] > 100 µM | [20] > 100 µM

CC(=O)O[C@H]1[C@@H](OC2CCCC2(c2ccccc2)c2ccccc2)O[N+]([O-])=C[C@@]12COCc1cc3c(cc12)OCO3 (stereo partly specified)
inactive: [1] 30.1 µM | [2] 7.06 µM | [3] 2.32 µM | [4] 4.42 µM | [5] 8.57 µM | [6] 2.83 µM | [7] 93.3 µM | [8] 5.13 µM | [9] 4.6 µM | [10] 6.58 µM | [11] 4.23 µM | [12] 18.2 µM | [13] 3.54 µM | [14] 4.14 µM | [15] 11.2 µM | [16] 7.85 µM | [17] 3.25 µM | [18] 4.79 µM | [19] 6.78 µM | [20] 5.74 µM

CCN1CCC(O)(c2ccc(Oc3ccc(F)cc3)cc2)C(C(=O)c2ccc(Oc3ccc(F)cc3)cc2)C1 (stereo unspecified)
inactive: [1] 17.8 µM | [3] 2.33 µM | [5] 15 µM | [6] 10.1 µM | [7] 18.5 µM | [8] 11.9 µM | [10] 11.6 µM | [11] 13.4 µM | [12] 15.8 µM | [13] 11 µM | [14] 4.42 µM | [15] 16.9 µM | [16] 13.8 µM | [17] 11.4 µM | [18] 13.6 µM | [19] 15.8 µM | [20] 12.2 µM

CC(=O)OCC(OC(C)=O)C(OC(C)=O)C(OC(C)=O)C(/C=N\Nc1nc2ccccc2c(=O)[nH]1)=N/Nc1nc2ccccc2c(=O)[nH]1 (stereo unspecified)
inactive: [1] > 100 µM | [2] > 100 µM | [3] > 100 µM | [4] > 100 µM | [5] > 100 µM | [6] > 100 µM | [7] 18.2 µM | [8] > 100 µM | [9] > 100 µM | [10] > 100 µM | [11] > 100 µM | [12] > 100 µM | [14] 97.7 µM | [15] > 100 µM | [16] > 100 µM | [17] 85.5 µM | [18] > 100 µM | [19] > 100 µM | [20] > 100 µM

N=C(N)NCCCC(NC(=O)OCCCCn1ccc(N)nc1=O)C(=O)O (stereo unspecified)
inactive: [1] > 100 µM | [2] > 100 µM | [3] > 100 µM | [4] > 100 µM | [5] > 100 µM | [6] > 100 µM | [7] > 100 µM | [8] > 100 µM | [10] > 100 µM | [11] > 100 µM | [12] > 100 µM | [13] > 100 µM | [14] > 100 µM | [15] > 100 µM | [16] > 100 µM | [17] > 100 µM | [18] 4.26 µM | [19] > 100 µM | [20] > 100 µM

Cc1ccc(O)c(C(c2cc(C)ccc2O)c2cc([N+](=O)[O-])ccc2O)c1
inactive: [1] 17.7 µM | [3] 8.43 µM | [4] 7.74 µM | [5] 12.1 µM | [6] 13.6 µM | [7] 15.7 µM | [8] 14.8 µM | [9] 38.6 µM | [10] 16.1 µM | [11] 16.9 µM | [12] 16.6 µM | [13] 10.3 µM | [14] 7.74 µM | [15] 11 µM | [16] 13.2 µM | [17] 12.4 µM | [18] 14.4 µM | [19] 5.73 µM | [20] 17.8 µM

CC1=NN(c2nc(N)nc(CSc3nc4n(c(=S)n3)CCN4)n2)C(C)(C)C1
inactive: [1] 19.1 µM | [2] > 100 µM | [3] > 100 µM | [6] > 100 µM | [7] 44.8 µM | [8] 18.6 µM | [9] > 100 µM | [10] 93.5 µM | [11] 21.7 µM | [12] > 100 µM | [13] 15.1 µM | [14] > 100 µM | [15] 67.9 µM | [16] 44.9 µM | [17] > 100 µM | [18] 15 µM | [19] > 100 µM | [20] 15.6 µM
